Tests used:
Test in all cases: relative viability (nuclei count vs DMSO), 5 days (fraction); higher = more cells survive
[1] = compound: NS(=O)(=O)OC[C@@H]1C[C@@H](n2ccc3c(N[C@H]4CCc5ccccc54)ncnc32)C[C@@H]1O [MLN4924] + CS(=O)(=O)N1CCN(Cc2cc3nc(-c4cccc5[nH]ncc45)nc(N4CCOCC4)c3s2)CC1 [Pictilisib] (partner 1 µM)
Method in brief: (§1)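 Cells from lung cancer lines were seeded into 1536-well plates and, one day later, dosed by pin tool. Treatments were either a single drug or a fixed dose of an anchor drug with five library-drug doses (not always all listed) in √10 steps. After 5 days, nuclei were stained in a one-step fixation (final 0.05% Triton X-100, 1% formaldehyde, 1 ug/ml Hoechst) and counted on 4× images, and relative viability is the treated-to-vehicle nuclei ratio, as the median of duplicate plates.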

[2] = compound: CC[C@H](C)N1C=C(C2=C(C=C(C=C21)C3=CN=C(C=C3)N4CCNCC4)C(=O)NCC5=C(C=C(NC5=O)C)C)C [GSK126] + CC1(C)CCC(c2ccc(Cl)cc2)=C(CN2CCN(c3ccc(C(=O)NS(=O)(=O)c4ccc(N[C@H](CCN5CCOCC5)CSc5ccccc5)c(S(=O)(=O)C(F)(F)F)c4)cc3)CC2)C1 [Navitoclax] (partner 0.5 µM)
Method in brief: as §1

[3] = compound: C1CC(C1)(C(=O)O)C(=O)O.[NH2-].[NH2-].[Pt+2] [Carboplatin] + Cc1nc(Nc2ncc(C(=O)Nc3c(C)cccc3Cl)s2)cc(N2CCN(CCO)CC2)n1 [Dasatinib] (partner 0.075 µM)
Method in brief: as §1

[4] = compound: C1CC(C1)(C(=O)O)C(=O)O.[NH2-].[NH2-].[Pt+2] [Carboplatin] + Nc1ncn([C@H]2C[C@H](O)[C@@H](CO)O2)c(=O)n1 [Decitabine] (partner 2 µM)
Method in brief: as §1

## UMC-11
[1]; first compound 0.04 µM
  relative viability: 0.593
[1]; first compound 0.1265 µM
  relative viability: 0.357
[1]; first compound 0.4 µM
  relative viability: 0.267
[1]; first compound 1.265 µM
  relative viability: 0.14
[1]; first compound 4 µM
  relative viability: 0.14
[2]; first compound 0.08 µM
  relative viability: 0.323
[2]; first compound 0.253 µM
  relative viability: 0.314
[2]; first compound 0.8 µM
  relative viability: 0.316
[2]; first compound 2.53 µM
  relative viability: 0.264
[2]; first compound 8 µM
  relative viability: 0.279
[3]; first compound 0.08 µM
  relative viability: 0.515
[3]; first compound 0.253 µM
  relative viability: 0.501
[3]; first compound 0.8 µM
  relative viability: 0.461
[3]; first compound 2.53 µM
  relative viability: 0.502
[3]; first compound 8 µM
  relative viability: 0.491
[4]; first compound 0.08 µM
  relative viability: 0.596
[4]; first compound 0.253 µM
  relative viability: 0.626
[4]; first compound 0.8 µM
  relative viability: 0.482
[4]; first compound 2.53 µM
  relative viability: 0.576
[4]; first compound 8 µM
  relative viability: 0.418

From the supplement of paper PMC10307832
